In ChEMBL document CHEMBL4765482, “Novel Sigma 1 Receptor Antagonists as Potential Therapeutics for Pain Management” (J Med Chem, 2021):
The source made the active and inactive calls.

Columns and labels:
[1] = biological target: T1, Sigma non-opioid intracellular receptor 1 (Homo sapiens, UniProt Q99720); assay: Displacement of [3H]-pentazocine from sigma-1 receptor in human Jurkat cell membrane incubated for 2 hr by liquid scintillation counting method; format: cell membranes
[2] = biological target: T2, Sigma intracellular receptor 2 (Homo sapiens, UniProt Q5BJF2); assay: Displacement of [3H]-DTG from sigma-2 receptor in human Jurkat cell membrane incubated for 1 hr by liquid scintillation counting method; format: cell membranes
[3] = Toxicity in Sprague-Dawley rat assessed as effect on motor coordination at 10 to 20 mg/kg, ip measured at 30 to 120 mins post treatment by rotarod test; format: organism-based; conditions: in vivo, dose lower 10 mg/kg, time lower 30 min, dose upper 20 mg/kg, time upper 120 min
Rattus norvegicus [4] = assay: Antinociceptive activity in formalin-induced Sprague-Dawley rat model of nociceptive pain assessed as decrease in time spent on licking during acute phase at 40 mg/kg, ip administered 30 mins before formalin stimulation and measured at 5 mins interval for 10 mins; format: functional, organism-based; conditions: time 40.0 min
Rattus norvegicus [5] = assay: Antinociceptive activity in formalin-induced Sprague-Dawley rat model of nociceptive pain assessed as decrease in time spent on licking during late phase at 20 to 40 mg/kg, ip administered 30 mins before formalin stimulation and measured at 5 mins interval for 10 to 35 mins; format: functional, organism-based; conditions: dose 20-40 mg/kg
Rattus norvegicus [6] = assay: Analgesic activity in Sprague-Dawley rat model of paclitaxel-induced neuropathic pain assessed as decrease in mechanical allodynia by measuring reduction in pain threshold at 20 mg/kg, ip measured at 0.5 to 1.5 hrs by Von Frey assay relative to control; format: functional; parameters: scale not given: the % may be the effect or the level left; conditions: time 0.5-1.5 hrs
[7] = biological target: T3, Sigma non-opioid intracellular receptor 1 (Cavia porcellus, UniProt Q60492); assay: Displacement of [3H]-(+)-pentazocine from sigma-1 receptor in guinea pig brain membranes incubated for 1 hr by liquid scintillation counting method; format: cell membranes, Membrane
[8] = Displacement of [3H]-DTG from sigma-2 receptor in guinea pig brain membrane incubated for 1 hr by liquid scintillation counting method; format: cell membranes, Cavia porcellus
[9] = Metabolic stability in rat liver microsomes assessed as half-life at 10 uM incubated for 1 hr in presence of NADPH by LC-MS/MS analysis; format: ADME, Microsome
[10] = Intrinsic clearance in rat liver microsomes at 10 uM incubated for 1 hr in presence of NADPH by LC-MS/MS analysis; format: ADME, Microsome; conditions: read-out: CLH
[11] = Metabolic stability in human liver microsomes assessed as half-life at 10 uM incubated for 1 hr in presence of NADPH by LC-MS/MS analysis; format: ADME, Microsome
[12] = Intrinsic clearance in human liver microsomes at 10 uM incubated for 1 hr in presence of NADPH by LC-MS/MS analysis; format: ADME, Microsome; conditions: read-out: CLH
[13] = biological target: Sigma non-opioid intracellular receptor 1 (Cavia porcellus) (UniProt Q60492); assay: Ratio of Ki for displacement of [3H]-(+)-pentazocine from sigma-1 receptor to Ki for displacement of [3H]-(+)-pentazocine from sigma-1 receptor in guinea pig brain membranes in presence of phenytoin; format: cell membranes; conditions: Membrane
[14] = biological target: Delta-type opioid receptor (Homo sapiens) (UniProt P41143); assay: Displacement of [3H]-Naltrindole from recombinant human full-length delta opiod receptor expressed in human HEK293 cells at 1 uM incubated for 60 mins by scintillation counting method; format: cell-based
[15] = biological target: Kappa-type opioid receptor (Homo sapiens) (UniProt P41145); assay: Displacement of [3H]-Diprenorphine from recombinant human full-length kappa opiod receptor expressed in human HEK293 cells at 1 uM incubated for 60 mins by scintillation counting method; format: cell-based
[16] = biological target: Mu-type opioid receptor (Homo sapiens) (UniProt P35372); assay: Displacement of [3H]-Diprenorphine from recombinant human full-length mu opiod receptor expressed in […] cells at 1 uM incubated for 60 mins by scintillation counting method; format: cell-based; conditions: HEK293
hERG (KCNH2) = hERG (KCNH2) (Homo sapiens, UniProt Q12809); assay: Binding affinity to human ERG at 1 uM relative to control; format: cell-based; conditions: HEK293 cells, read-out: Activity
[17] = Half life in Sprague-Dawley rat plasma at 10 mg/kg, ip measured after 0.25 to 4 hrs by LC-MS/MS analysis; format: ADME, organism-based; conditions: time 0.25-4 hrs
[18] = Tmax in Sprague-Dawley rat plasma at 10 mg/kg, ip measured after 0.25 to 4 hrs by LC-MS/MS analysis; format: ADME, organism-based; conditions: time 0.25-4 hrs
[19] = Cmax in Sprague-Dawley rat plasma at 10 mg/kg, ip measured after 0.25 to 4 hrs by LC-MS/MS analysis; format: ADME, organism-based; parameters: route intraperitoneal, time upper 4 hrs, time lower 0.25 hrs, dose 10 mg/kg
[20] = AUC (0 to 4 hrs) in Sprague-Dawley rat plasma at 10 mg/kg, ip after 0.25 to 4 hrs by LC-MS/MS analysis; format: ADME, organism-based; parameters: route intraperitoneal, dose 10 mg/kg, time upper 4 hrs, time lower 0.25 hrs
[21] = AUC (0 to infinity) in Sprague-Dawley rat plasma at 10 mg/kg, ip after 0.25 to 4 hrs by LC-MS/MS analysis; format: ADME, organism-based; parameters: route intraperitoneal, time 0.25-4 hrs, dose 10 mg/kg
[22] = MRT (0 to infinity) in Sprague-Dawley rat plasma at 10 mg/kg, ip after 0.25 to 4 hrs by LC-MS/MS analysis; format: ADME, organism-based; conditions: time 0.25-4 hrs
[23] = Ratio of drug concentration in brain to plasma in Sprague-Dawley rat at 10 mg/kg, ip by LC-MS/MS analysis; format: ADME, organism-based; conditions: read-out: BPR
Rattus norvegicus [24] = assay: Analgesic activity in Sprague-Dawley rat model of paclitaxel-induced neuropathic pain assessed as reduction in cold hyperalgesia by measuring increase in paw withdrawal latency at 20 to 40 mg/kg, ip measured at 1 to 2 hrs post dosing by Von Frey assay relative to control; format: functional; parameters: scale not given: the % may be the effect or the level left; conditions: dose 20-40 mg/kg, time 1-2 hrs
[25] = biological target: T3, Sigma non-opioid intracellular receptor 1
[26] = biological target: T2, Sigma intracellular receptor 2; assay: Displacement of [3H]-DTG from sigma-2 receptor in human Jurkat cell membrane at 1000 nM incubated for 1 hr by liquid scintillation counting method relative to control; format: cell membranes; conditions: filed as antagonist
[27] = biological target: T1, Sigma non-opioid intracellular receptor 1; assay: Displacement of [3H]-pentazocine from sigma-1 receptor in human Jurkat cell membrane at 100 nM incubated for 2 hr by liquid scintillation counting method relative to control; format: cell membranes
[28] = Toxicity in Sprague-Dawley rat assessed as effect on motor coordination at 100 mg/kg, ip measured at 60 to 120 mins post treatment by rotarod test; format: organism-based; conditions: in vivo, time 60-120 min
Rattus norvegicus [29] = assay: Antinociceptive activity in formalin-induced Sprague-Dawley rat model of nociceptive pain assessed as decrease in time spent on licking during late phase at 100 mg/kg, ip administered 30 mins before formalin stimulation and measured at 5 mins interval for 10 to 35 mins; format: functional, organism-based
Rattus norvegicus [30] = assay: Analgesic activity in Sprague-Dawley rat model of paclitaxel-induced neuropathic pain assessed as decrease in mechanical allodynia by measuring reduction in pain threshold at 100 mg/kg, ip measured at 0.5 to 1.5 hrs by Von Frey assay relative to control; format: functional, organism-based; conditions: time 0.5-1.5 hrs
Rattus norvegicus [31] = assay: Analgesic activity in Sprague-Dawley rat model of paclitaxel-induced neuropathic pain assessed as reduction in cold hyperalgesia by measuring increase in paw withdrawal latency at 100 mg/kg, ip measured at 1 to 2 hrs post dosing by Von Frey assay relative to control; format: functional, organism-based; conditions: time 1-2 hrs

T3 sequence (Q60492 whole entry): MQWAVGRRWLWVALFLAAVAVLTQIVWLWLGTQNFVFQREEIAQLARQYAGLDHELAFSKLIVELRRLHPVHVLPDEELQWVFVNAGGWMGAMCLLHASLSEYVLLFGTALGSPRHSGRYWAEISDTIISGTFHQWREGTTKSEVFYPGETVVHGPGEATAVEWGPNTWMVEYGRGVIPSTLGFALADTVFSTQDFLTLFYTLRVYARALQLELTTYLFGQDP
T2 sequence (Q5BJF2 whole entry): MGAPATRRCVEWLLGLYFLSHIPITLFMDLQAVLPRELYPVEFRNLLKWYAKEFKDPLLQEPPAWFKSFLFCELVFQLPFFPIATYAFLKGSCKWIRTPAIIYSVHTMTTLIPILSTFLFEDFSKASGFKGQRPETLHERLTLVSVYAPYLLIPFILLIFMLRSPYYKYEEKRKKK
T1 sequence (Q99720 whole entry): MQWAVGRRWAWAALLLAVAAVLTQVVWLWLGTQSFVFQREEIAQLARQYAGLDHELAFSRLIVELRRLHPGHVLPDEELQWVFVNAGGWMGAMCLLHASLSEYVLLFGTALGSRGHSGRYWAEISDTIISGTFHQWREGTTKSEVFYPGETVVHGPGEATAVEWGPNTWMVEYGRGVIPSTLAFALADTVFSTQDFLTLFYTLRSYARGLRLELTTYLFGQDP
Sequence of Sigma non-opioid intracellular receptor 1 (Cavia porcellus) (Q60492 whole entry): as the sequence (Q60492 whole entry) above
Sequence of Mu-type opioid receptor (Homo sapiens) (P35372 whole entry): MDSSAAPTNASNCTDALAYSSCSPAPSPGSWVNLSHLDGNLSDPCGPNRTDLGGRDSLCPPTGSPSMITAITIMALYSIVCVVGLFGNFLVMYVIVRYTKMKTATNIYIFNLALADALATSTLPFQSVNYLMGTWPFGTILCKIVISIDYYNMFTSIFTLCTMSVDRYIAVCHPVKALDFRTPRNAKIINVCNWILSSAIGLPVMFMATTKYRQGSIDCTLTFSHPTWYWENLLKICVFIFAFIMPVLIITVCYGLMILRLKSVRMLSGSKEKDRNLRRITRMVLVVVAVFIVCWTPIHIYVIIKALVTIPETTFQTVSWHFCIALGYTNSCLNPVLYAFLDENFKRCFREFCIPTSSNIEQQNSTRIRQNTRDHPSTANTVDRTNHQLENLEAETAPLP
Sequence of Kappa-type opioid receptor (Homo sapiens) (P41145 whole entry): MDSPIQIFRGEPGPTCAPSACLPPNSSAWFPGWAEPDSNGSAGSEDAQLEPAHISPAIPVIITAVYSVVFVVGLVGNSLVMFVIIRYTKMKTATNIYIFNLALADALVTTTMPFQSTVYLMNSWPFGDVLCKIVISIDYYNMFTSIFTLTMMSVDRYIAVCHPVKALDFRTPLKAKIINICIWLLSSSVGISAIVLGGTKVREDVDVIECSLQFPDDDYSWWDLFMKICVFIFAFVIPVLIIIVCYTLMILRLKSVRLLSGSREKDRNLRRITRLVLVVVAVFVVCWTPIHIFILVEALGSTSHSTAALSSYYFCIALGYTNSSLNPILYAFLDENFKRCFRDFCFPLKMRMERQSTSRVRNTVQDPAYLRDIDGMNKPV
Sequence of hERG (KCNH2) (Q12809 whole entry): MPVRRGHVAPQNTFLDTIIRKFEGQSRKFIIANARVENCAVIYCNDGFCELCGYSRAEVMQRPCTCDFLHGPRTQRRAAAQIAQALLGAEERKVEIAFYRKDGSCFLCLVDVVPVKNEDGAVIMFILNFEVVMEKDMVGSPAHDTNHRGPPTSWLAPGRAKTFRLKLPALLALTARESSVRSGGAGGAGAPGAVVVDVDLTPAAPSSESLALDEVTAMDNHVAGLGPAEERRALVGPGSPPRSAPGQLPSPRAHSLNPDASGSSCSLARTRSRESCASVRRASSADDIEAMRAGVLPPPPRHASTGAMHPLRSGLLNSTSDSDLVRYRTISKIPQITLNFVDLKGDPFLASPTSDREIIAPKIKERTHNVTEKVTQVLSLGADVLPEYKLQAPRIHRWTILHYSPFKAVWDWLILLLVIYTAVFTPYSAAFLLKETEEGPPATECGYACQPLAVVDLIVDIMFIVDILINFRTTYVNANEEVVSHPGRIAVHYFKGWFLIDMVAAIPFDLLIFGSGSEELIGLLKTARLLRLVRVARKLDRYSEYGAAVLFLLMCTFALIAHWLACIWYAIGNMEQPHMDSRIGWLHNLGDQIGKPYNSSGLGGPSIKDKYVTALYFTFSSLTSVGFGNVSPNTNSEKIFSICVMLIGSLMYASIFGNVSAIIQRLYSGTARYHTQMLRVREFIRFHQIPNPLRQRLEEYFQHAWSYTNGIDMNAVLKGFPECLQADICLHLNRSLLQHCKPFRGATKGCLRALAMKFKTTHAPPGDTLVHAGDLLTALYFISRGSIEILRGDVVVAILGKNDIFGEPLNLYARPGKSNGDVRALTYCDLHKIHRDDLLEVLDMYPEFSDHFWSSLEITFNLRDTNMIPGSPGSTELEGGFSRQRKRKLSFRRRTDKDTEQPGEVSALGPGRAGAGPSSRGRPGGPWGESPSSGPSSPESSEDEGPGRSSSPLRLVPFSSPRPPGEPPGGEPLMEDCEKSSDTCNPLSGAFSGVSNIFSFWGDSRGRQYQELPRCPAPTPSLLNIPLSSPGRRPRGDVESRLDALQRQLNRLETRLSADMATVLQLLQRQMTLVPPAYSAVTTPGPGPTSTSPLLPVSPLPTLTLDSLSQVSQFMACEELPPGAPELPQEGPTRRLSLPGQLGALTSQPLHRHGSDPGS
Sequence of Delta-type opioid receptor (Homo sapiens) (P41143 whole entry): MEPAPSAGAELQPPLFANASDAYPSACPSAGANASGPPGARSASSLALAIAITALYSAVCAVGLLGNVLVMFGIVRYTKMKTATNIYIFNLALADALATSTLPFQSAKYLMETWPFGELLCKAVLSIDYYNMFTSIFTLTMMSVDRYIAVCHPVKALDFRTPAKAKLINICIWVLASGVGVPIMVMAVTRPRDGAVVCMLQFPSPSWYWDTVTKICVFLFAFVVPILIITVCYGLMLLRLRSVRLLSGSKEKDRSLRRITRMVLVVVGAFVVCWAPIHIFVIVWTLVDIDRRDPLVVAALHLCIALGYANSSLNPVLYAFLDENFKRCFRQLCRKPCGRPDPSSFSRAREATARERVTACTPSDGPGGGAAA

SMILES: Cn1nc(CN2CCCC2)nc1-c1cccc(C(C)(C)C)c1
- Ki [1]: 29 nM
- Ki [2]: 1000 nM

SMILES: Cn1nc(CN2CCCC2)nc1-c1ccc(C(C)(C)C)cc1
- Activity [3]: Non-Toxic
- Activity (Rattus norvegicus [4]): Active
- Activity (Rattus norvegicus [5]): Active
- Activity (Rattus norvegicus [6]): 180%
- Ki [7]: 2.7 nM
- Ki [8]: 474 nM
- Ki [1]: 7.5 nM
- Ki [2]: > 1000 nM
- half-life at 10 µM [9]: 9.6 min
- microsomal CLint at 10 µM [10]: 72 µL/min/mg
- half-life at 10 µM [11]: 120 min
- microsomal CLint at 10 µM [12]: 5.8 µL/min/mg
- Ratio Ki [13]: 0.8
- Activity [14]: inactive
- Activity [15]: inactive
- Activity [16]: inactive
- activity at 1 µM (hERG (KCNH2)): 8.4%
- half-life [17]: 33.6 min
- Tmax [18]: 15 min
- Cmax [19]: 932 ng/mL
- AUC(0-t) [20]: 633 ng·h/mL
- AUC(0-inf) [21]: 635 ng·h/mL
- MRT inf [22]: 43.8 min
- Kp [23]: 12
- Activity (Rattus norvegicus [24]): 120%
- Ki [25]: 3.4 nM

SMILES: Cn1nc(CN2CCCC2)nc1-c1ccc(-c2ccccc2)cc1
- Ki [1]: 90 nM
- Activity [26]: 60%

SMILES: Cn1nc(CN2CCCC2)nc1-c1ccc(Oc2ccccc2)cc1
- Activity [27]: 39%
- Activity [26]: 65%

SMILES: Cn1nc(CN2CCCC2)nc1-c1ccc2c(c1)CCCC2
- Ki [1]: 26 nM

SMILES: Cc1cc(OCCN2CCOCC2)nn1-c1ccc2ccccc2c1
- Ki [7]: 3 nM
- Ki [8]: > 1000 nM
- half-life at 10 µM [9]: 3.6 min
- microsomal CLint at 10 µM [10]: 190 µL/min/mg
- half-life at 10 µM [11]: 64.6 min
- microsomal CLint at 10 µM [12]: 10.7 µL/min/mg

SMILES: NCC1(CC(=O)O)CCCCC1 [GABAPENTIN]
- Activity [28]: Toxic
- Activity (Rattus norvegicus [29]): Active
- Activity (Rattus norvegicus [30]): Active
- Activity (Rattus norvegicus [31]): inactive

SMILES: Cn1nc(CN2CCCC2)nc1-c1ccc(Cl)cc1
- Activity [27]: 31%
- Ki [2]: > 1000 nM

SMILES: Cc1ncc2n1-c1ccc(Cl)cc1C(c1ccccc1F)=NC2 [MIDAZOLAM]
- half-life at 10 µM [9]: 2.4 min
- microsomal CLint at 10 µM [10]: 293 µL/min/mg
- half-life at 10 µM [11]: 2.6 min
- microsomal CLint at 10 µM [12]: 263 µL/min/mg

SMILES: Cn1nc(CN2CCCC2)nc1-c1ccc(C2(C(F)(F)F)CC2)cc1
- half-life at 10 µM [9]: 3.3 min
- microsomal CLint at 10 µM [10]: 207 µL/min/mg
- half-life at 10 µM [11]: 172 min
- microsomal CLint at 10 µM [12]: 4 µL/min/mg

SMILES: CN1CCN(Cc2nc(-c3ccc(C(C)(C)C)cc3)n(C)n2)CC1
- Ki [8]: > 1000 nM

SMILES: Cn1nc(CN2CCCC2)nc1-c1cccc(C2(C(F)(F)F)CC2)c1
- half-life at 10 µM [9]: 4.8 min
- microsomal CLint at 10 µM [10]: 144 µL/min/mg
- half-life at 10 µM [11]: 87.6 min
- microsomal CLint at 10 µM [12]: 7.9 µL/min/mg

SMILES: O=C(O)Cc1ccccc1Nc1c(Cl)cccc1Cl [DICLOFENAC]
- microsomal CLint at 10 µM [10]: 196 µL/min/mg
- microsomal CLint at 10 µM [12]: 189 µL/min/mg

SMILES: Cc1cc(-c2nc(CN3CCCC3)nn2C)ccc1C(F)(F)F
- half-life at 10 µM [9]: 2.6 min
- microsomal CLint at 10 µM [10]: 263 µL/min/mg
- half-life at 10 µM [11]: 74.9 min
- microsomal CLint at 10 µM [12]: 9.3 µL/min/mg

SMILES: Cn1nc(CN2CCC(Cc3ccccc3)CC2)nc1-c1ccc(C(C)(C)C)cc1
- Ki [8]: 57 nM

SMILES: Cn1nc(CN2CCCC2)nc1-c1ccc2cc(Cl)sc2c1
- Ki [2]: 1000 nM

SMILES: Cc1ccc(-c2nc(CN3CCCC3)nn2C)cc1
- Activity [27]: 3%
- Ki [2]: > 1000 nM

SMILES: COc1ccc2c(c1)[C@]13CCCC[C@@H]1[C@H](C2)N(C)CC3 [DEXTROMETHORPHAN]
- Ki [7]: 63 nM
- Ratio Ki [13]: 6.3
- Ki [25]: 10 nM
